Laboratory results taken from ChEMBL document CHEMBL5252586, “2-[(2-Amino-6-methylpyrimidin-4-yl)sulfanyl]-N-arylacetamides: Discovery of a new class of anti-tubercular agents and prospects for their further structural modification” (Bioorg Med Chem Lett, 2023).
Converted amounts (≈) assume the structure as drawn. The source made the active and inactive calls. The rule behind the calls is not given here.

Tested on: not listed separately
Test: Solubility of compound
Format: physicochemical
Details: not given

In the case of Cc1cc(=O)[nH]c(N)n1, the solubility is reported as “Soluble”.

Tested on: Mycobacterium tuberculosis
Test: Antimycobacterial activity against Mycobacterium tuberculosis H37Rv assessed as reduction in bacterial growth at 100 microg/ml
Format: functional, organism-based
Details: dose 100.0 µg/ml

In the case of Cc1ccc(NC(=O)CSc2cc(C)nc(N)n2)cc1, the Activity is reported as “inactive”.

Tested on: Mycobacterium tuberculosis
Test: Antimycobacterial activity against Mycobacterium tuberculosis H37Rv assessed as reduction in bacterial growth
Format: functional
Details: not given

In order of rising MIC:
1. NNC(=O)c1ccncc1 [ISONIAZID]  0.1 µg/mL (≈ 0.729 µM)
2. CO[C@H]1/C=C/O[C@@]2(C)Oc3c(C)c(O)c4c(O)c(c(/C=N/N5CCN(C)CC5)c(O)c4c3C2=O)NC(=O)/C(C)=C\C=C\[C@H](C)[C@H](O)[C@@H](C)[C@@H](O)[C@@H](C)[C@H](OC(C)=O)[C@@H]1C [RIFAMPIN]  0.5 µg/mL (≈ 0.608 µM)
3. Cc1cc(SCC(=O)Nc2cc(Cl)ccc2Cl)nc(N)n1  1.5 µg/mL (≈ 4.37 µM)
4. Cc1cc(SCC(=O)Nc2ccc(C(C)C)cc2)nc(N)n1  1.5 µg/mL (≈ 4.74 µM)
5. CC[C@@H](CO)NCCN[C@@H](CC)CO [ETHAMBUTOL]  5 µg/mL (≈ 24.5 µM)
6. Cc1cc(SCC(=O)Nc2cc(C(F)(F)F)ccc2Cl)nc(N)n1  25 µg/mL (≈ 66.3 µM)
7. Cc1ccc(NC(=O)CSc2cc(C)nc(N)n2)c(C)c1  100 µg/mL (≈ 331 µM)
8. Cc1cc(SCC(=O)Nc2cccc(Cl)c2C)nc(N)n1  100 µg/mL (≈ 310 µM)
9. Cc1cc(SCC(=O)Nc2ccc(F)cc2)nc(N)n1  100 µg/mL (≈ 342 µM)
10. Cc1cc(SCC(=O)Nc2ccccc2)nc(N)n1  100 µg/mL (≈ 364 µM)
